The results in this text go back to paper PMC7998669, “7-(2-Anilinopyrimidin-4-yl)-1-benzazepin-2-ones Designed by a “Cut and Glue” Strategy Are Dual Aurora A/VEGF-R Kinase Inhibitors” (Molecules, 2021).

Converted amounts (≈) assume the structure as drawn.

The nature of data set [1]: kinetic solubility by nephelometry. In kind it is physicochemical. To be noted: phosphate buffer, 25 °C, pH 7.4, aqueous buffer, kinetic from dmso stock, phosphate buffer pH 7.4, 1% DMSO, mean of two measurements, range in brackets. On the procedure:
The kinetic solubility of test compounds was determined by nephelometry. Dilution series of test compounds in DMSO with eight to ten different concentrations were prepared. The dilutions were pipetted (2 µL) into the cavities of a 96 well plate (CorningTM UV-transparent flat-bottom microtiter plate; Corning Incorporated, Kennebunk, ME, USA). A phosphate buffer solution pH 7.4 (198 µL) was added, so that the DMSO concentration in the measured solutions was 1%. Three wells were filled with DMSO and phosphate buffer pH 7.4 (2:198) and measured as blank values. The 96 well plate prepared in this way was measured with the NEPHELOstar® Plus nephelometer (BMG Labtech GmbH, Ortenberg, Germany, software: Omega 5.11) at a temperature of 25 °C. Previously, the plate was shaken at 500 rpm for 10 s and the laser intensity was set to 80%. The beam focus was set to 2.50 mm. If the test substance is completely soluble, only a scattering close to the blank value is detected. As soon as a critical concentration is reached in which the kinetic solubility of the test compound is exceeded, solid particles precipitate. Undissolved particles in the sample scatter the laser beam. The intensity of the scattered light is determined, which is proportional to the number of particles in the solution. The blank values were determined and subtracted from the measured values of the test compounds. By measuring different concentrations of the test substances, different intensities of the scattered light, indicated as RNU (relative nephelometric units), were determined. Kick off curves were obtained by plotting concentrations against the RNU values. The point of intersection of the horizontal and of the ascending part of the kick-off curve indicated the kinetic solubility concentration.

For the next data set, the system named is COLO 205. The experiment in a line: NCI cancer cell line screen (sulforhodamin B). In kind it is cell-based. Particulars: Homo sapiens; COLO 205, Colon; 48 h; read-out: log10 GI50 (converted). On the procedure:
The new dual Aurora A/VEGF-R inhibitors 2e and 2n were selected by the National Cancer Institute for screening in its broad cancer cell line panel. The NCI in vitro assay is performed by incubation of cells with test compounds for 48 h and subsequent cell fixation with trichloroacetic acid. The pink dye sulforhodamin B is added, which binds to the proteins of the fixed cells. After washing and solubilizing the bound stain, the optical density is measured spectrophotometrically to determine the relative proliferation of treated and untreated cells.
Simultaneous inhibition of the Aurora A kinase and the VEGF-R2/3 receptor kinases may represent an interesting dual activity for the treatment of cancer. The National Cancer Institute selected the compounds 2e and 2n as representatives with particularly high inhibitory activity on the above kinases for testing in the IVCLS (in vitro cell line screening). In this screening, compounds are tested for antiproliferative activity on about 60 in vitro cultivated tumor cell lines. Based on this very broad screening on cell lines from nine tumor entities the general antiproliferative potency of compounds is determined. In addition, the bioinformatic tool COMPARE allowed one to draw conclusions on the molecular target of the compounds from the activity patterns on the different cell lines. Similar molecular mechanisms of action of two compounds are assumed if a Pearson correlation coefficient (PCC) of > 0.6 is calculated by COMPARE [52, 53]. […] The selectivity profile of the two compounds is not very pronounced given the overall very similar proliferation inhibition values across all cell lines. A COMPARE analysis determined a PCC = 0.61 for the patterns of test compounds 2e and 2n, which is consistent with an analogous mechanism of action. However, whether this mechanism is actually based on the inhibition of the inhibited Aurora kinases and VEGF receptor kinases cannot be deduced from these profiles.

For orientation: solubility (kinetic) means the concentration staying in solution when a stock, usually in DMSO, is diluted into the medium. In general, GI50 refers to the concentration giving 50% growth inhibition.

`O=C1CCCc2cc(-c3ccnc(Nc4ccccc4)n3)ccc2N1` [Compound 2a, 7-(2-Anilinopyrimidin-4-yl)-1,3,4,5-tetrahydro-2H-1-benzazepin-2-one] gave a solubility (kinetic) at 10 s in data set [1] of roughly 50 µM (≈ 16.5 µg/mL).

For the compound `COc1ccc(Nc2nccc(-c3ccc4c(c3)CCCC(=O)N4)n2)cc1O` [Compound 2n, 7-[2-(3-Hydroxy-4-methoxyanilino)pyrimidin-4-yl]-1,3,4,5-tetrahydro-2H-1-benzazepin-2-one], the concentration for 50% growth inhibition (GI50) in the data set with COLO 205 was 26.3 µM. Also, the solubility (kinetic) at 10 s in data set [1] was 92.6 µM (≈ 34.9 µg/mL).
